Results from publication doi:10.1101/2020.08.05.237982v3, “ThermoBRET: a ligand-engagement nanoscale thermostability assay applied to GPCRs” (biorxiv, 2023).

Target: T1, CB2 (Nluc-CB2, tsNluc-CB2) (Homo sapiens, UniProt P34972)
T1 construct: gene CNR2; N-terminal cleaved signal peptide, TwinStrep tag and Nluc or tsNluc
Type: binding
Conditions: Nluc-CB2, 20 µM ligand, DDM/CHAPSO/CHS

T1 sequence (P34972 whole entry): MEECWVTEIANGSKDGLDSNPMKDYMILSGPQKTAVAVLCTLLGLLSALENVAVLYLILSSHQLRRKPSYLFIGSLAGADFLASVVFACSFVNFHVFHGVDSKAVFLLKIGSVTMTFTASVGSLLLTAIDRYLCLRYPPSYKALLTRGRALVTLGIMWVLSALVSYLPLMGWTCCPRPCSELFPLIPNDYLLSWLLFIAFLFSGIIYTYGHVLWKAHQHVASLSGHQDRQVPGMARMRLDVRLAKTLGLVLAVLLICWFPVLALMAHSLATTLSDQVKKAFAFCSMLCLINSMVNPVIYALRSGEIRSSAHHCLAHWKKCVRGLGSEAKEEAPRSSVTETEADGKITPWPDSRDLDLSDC

## CCCCCCC(C)(C)c1cc(OC)c([C@@H]2C=C(CO)[C@@H]3C[C@H]2C3(C)C)c(OC)c1 [HU308]
  dTm: HU308 and SR144528 also produced appreciable increases in thermostability

## Cc1ccc(Cn2nc(C(=O)N[C@@H]3C(C)(C)[C@@H]4CC[C@@]3(C)C4)cc2-c2ccc(Cl)c(C)c2)cc1 [SR144528]
  dTm: HU308 and SR144528 also produced appreciable increases in thermostability
